ChEMBL document CHEMBL3351595, “Cyclic acyl guanidines bearing carbamate moieties allow potent and dirigible cholinesterase inhibition of either acetyl- or butyrylcholinesterase” (Bioorg Med Chem, 2014)
The source made the active and inactive calls. The calls are words filed in the database; no cut-off is given here.

What was measured:
[1] = Selectivity index, ratio of IC50 for electric eel AChE to IC50 for quine serum BChE
Acetylcholinesterase = Acetylcholinesterase (Electrophorus electricus, UniProt O42275); test: Inhibition of electric eel AChE using ATC iodide substrate by DTNB based assay
Cholinesterase = Cholinesterase (Equus caballus, UniProt P81908); test: Inhibition of equine serum BChE using ATC iodide substrate by DTNB based assay
[2] = biological target: Cholinesterase (Equus caballus) (UniProt P81908); test: Inhibition of equine serum BChE at 50 uM using ATC iodide substrate by DTNB based assay
[3] = biological target: Acetylcholinesterase (Electrophorus electricus) (UniProt O42275); test: Inhibition of electric eel AChE at 50 uM using ATC iodide substrate by DTNB based assay
HT-22 [4] = test: Toxicity against mouse HT22 cells assessed as reduction in cell viability at 25 uM by MTT assay; type: cell-based; settings: ht-22, 25 µM
[5] = biological target: Cholinesterase (Equus caballus) (UniProt P81908); test: Inhibition of equine serum BChE at 100 uM using ATC iodide substrate by DTNB based assay
HT-22 [6] = test: Neuroprotective activity in mouse HT22 cells assessed as reduction in glutamate-induced cytotoxicity at 1 to 25 uM by MTT assay; type: functional, cell-based
HT-22 [7] = test: Toxicity against mouse HT22 cells assessed as reduction in cell viability at 1 to 25 uM by MTT assay; type: cell-based; settings: ht-22, 25 µM
HT-22 [8] = test: Neuroprotective activity in mouse HT22 cells assessed as reduction in glutamate-induced cytotoxicity at 10 to 25 uM by MTT assay; type: functional, cell-based
HT-22 [9] = test: Toxicity against mouse HT22 cells assessed as reduction in cell viability at 5 uM by MTT assay; type: cell-based; settings: ht-22, 5 µM
[10] = biological target: Cholinesterase (Equus caballus) (UniProt P81908); test: Inhibition of equine serum BChE assessed as rate constant of carbamoyl-enzyme formation pre-incubated for 2 to 20 mins by enzyme kinetic assay
[11] = biological target: Cholinesterase (Equus caballus) (UniProt P81908); test: Time dependent inhibition of equine serum BChE at 5 to 100 nM; settings: TDE = time-dependent effect
[12] = biological target: Cholinesterase (Equus caballus) (UniProt P81908); test: Inhibition of equine serum BChE assessed as rate constant of carbamoyl-enzyme formation pre-incubated for 80 mins by enzyme kinetic assay
[13] = biological target: Cholinesterase (Equus caballus) (UniProt P81908); test: Inhibition of equine serum BChE assessed as stability constant of inhibitor-enzyme complex pre-incubated for 2 to 20 mins by enzyme kinetic assay
[14] = biological target: Acetylcholinesterase (Electrophorus electricus) (UniProt O42275); test: Inhibition of electric eel AChE at 100 uM using ATC iodide substrate by DTNB based assay
HT-22 [15] = test: Neuroprotective activity in mouse HT22 cells assessed as reduction in glutamate-induced cytotoxicity at 5 to 25 uM by MTT assay; type: functional, cell-based
[16] = Antioxidant activity assessed as AAPH-induced peroxyl radicals scavenging activity by measuring Trolox equivalents by oxygen radical absorbance capacity-fluorescein assay; type: physicochemical
[17] = biological target: Acetylcholinesterase (Electrophorus electricus) (UniProt O42275); test: Inhibition of electric eel AChE assessed as rate constant of carbamoyl-enzyme formation pre-incubated for 2 to 20 mins by enzyme kinetic assay
[18] = biological target: Acetylcholinesterase (Homo sapiens) (UniProt P22303); test: Inhibition of human erythrocyte AChE pre-incubated for 20 mins by enzyme kinetic assay
[19] = biological target: Cholinesterase (Equus caballus) (UniProt P81908); test: Time dependent inhibition of equine serum BChE at 25 to 250 nM; settings: TDE = time-dependent effect
[20] = biological target: Acetylcholinesterase (Electrophorus electricus) (UniProt O42275); test: Inhibition of electric eel AChE assessed as stability constant of inhibitor-enzyme complex pre-incubated for 2 to 20 mins by enzyme kinetic assay
[21] = biological target: Acetylcholinesterase (Homo sapiens) (UniProt P22303); test: Inhibition of human erythrocyte AChE pre-incubated for 2 mins by enzyme kinetic assay
HT-22 [22] = test: Neuroprotective activity in mouse HT22 cells assessed as reduction in glutamate-induced cytotoxicity at 25 uM by MTT assay; type: functional, cell-based

Acetylcholinesterase, sequence (O42275 whole entry): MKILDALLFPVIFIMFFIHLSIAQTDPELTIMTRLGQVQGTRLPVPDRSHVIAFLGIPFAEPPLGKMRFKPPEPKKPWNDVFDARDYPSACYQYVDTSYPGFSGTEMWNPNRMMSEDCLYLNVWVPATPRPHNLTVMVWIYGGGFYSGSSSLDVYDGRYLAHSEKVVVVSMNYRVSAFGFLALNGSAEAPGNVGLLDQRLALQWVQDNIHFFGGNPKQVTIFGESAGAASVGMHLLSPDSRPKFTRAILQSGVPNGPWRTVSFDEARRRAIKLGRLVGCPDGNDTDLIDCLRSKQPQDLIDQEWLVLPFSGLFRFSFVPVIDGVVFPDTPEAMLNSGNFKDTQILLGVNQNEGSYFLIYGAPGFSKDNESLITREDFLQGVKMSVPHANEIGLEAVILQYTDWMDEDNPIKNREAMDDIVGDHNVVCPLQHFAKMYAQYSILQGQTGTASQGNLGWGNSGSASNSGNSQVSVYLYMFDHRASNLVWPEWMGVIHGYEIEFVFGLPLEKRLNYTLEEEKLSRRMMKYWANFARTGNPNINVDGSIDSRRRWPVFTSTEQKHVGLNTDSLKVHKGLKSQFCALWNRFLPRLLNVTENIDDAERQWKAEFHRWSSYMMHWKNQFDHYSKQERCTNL
Acetylcholinesterase (Electrophorus electricus), sequence (O42275 24-633 limits assumed): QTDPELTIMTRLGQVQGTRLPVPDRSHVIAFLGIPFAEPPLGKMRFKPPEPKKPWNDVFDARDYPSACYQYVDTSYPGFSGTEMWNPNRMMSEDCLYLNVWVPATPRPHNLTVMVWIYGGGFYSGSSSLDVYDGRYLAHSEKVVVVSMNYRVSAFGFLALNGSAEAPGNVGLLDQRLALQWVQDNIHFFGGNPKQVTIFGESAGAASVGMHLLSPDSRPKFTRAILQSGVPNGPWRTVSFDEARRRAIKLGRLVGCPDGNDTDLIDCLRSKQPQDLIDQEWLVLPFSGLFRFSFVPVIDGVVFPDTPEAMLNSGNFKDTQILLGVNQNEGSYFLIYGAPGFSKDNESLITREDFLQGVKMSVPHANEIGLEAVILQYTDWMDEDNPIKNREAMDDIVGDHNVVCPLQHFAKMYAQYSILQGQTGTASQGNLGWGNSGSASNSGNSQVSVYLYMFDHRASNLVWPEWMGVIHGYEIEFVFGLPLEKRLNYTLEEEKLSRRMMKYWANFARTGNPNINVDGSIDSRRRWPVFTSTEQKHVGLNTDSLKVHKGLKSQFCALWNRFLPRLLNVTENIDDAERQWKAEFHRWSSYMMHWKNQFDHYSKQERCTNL
Cholinesterase (Equus caballus), sequence (P81908 whole entry): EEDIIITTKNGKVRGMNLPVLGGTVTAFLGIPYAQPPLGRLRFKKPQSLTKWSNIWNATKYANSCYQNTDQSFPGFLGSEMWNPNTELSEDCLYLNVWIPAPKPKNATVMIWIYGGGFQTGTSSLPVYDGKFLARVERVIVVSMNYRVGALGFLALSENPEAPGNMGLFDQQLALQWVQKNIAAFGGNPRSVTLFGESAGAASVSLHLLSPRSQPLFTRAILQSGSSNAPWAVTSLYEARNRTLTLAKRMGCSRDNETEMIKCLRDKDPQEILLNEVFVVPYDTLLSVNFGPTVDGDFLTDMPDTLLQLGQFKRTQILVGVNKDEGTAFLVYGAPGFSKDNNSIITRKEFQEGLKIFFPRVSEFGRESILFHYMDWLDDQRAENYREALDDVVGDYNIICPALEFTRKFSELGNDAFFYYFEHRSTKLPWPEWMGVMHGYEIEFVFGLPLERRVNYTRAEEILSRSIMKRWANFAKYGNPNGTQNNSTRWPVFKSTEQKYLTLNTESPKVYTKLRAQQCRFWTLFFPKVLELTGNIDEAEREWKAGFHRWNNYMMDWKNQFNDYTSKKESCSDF
Cholinesterase, sequence (P81908 whole entry): as above
Acetylcholinesterase (Homo sapiens), sequence (P22303 whole entry): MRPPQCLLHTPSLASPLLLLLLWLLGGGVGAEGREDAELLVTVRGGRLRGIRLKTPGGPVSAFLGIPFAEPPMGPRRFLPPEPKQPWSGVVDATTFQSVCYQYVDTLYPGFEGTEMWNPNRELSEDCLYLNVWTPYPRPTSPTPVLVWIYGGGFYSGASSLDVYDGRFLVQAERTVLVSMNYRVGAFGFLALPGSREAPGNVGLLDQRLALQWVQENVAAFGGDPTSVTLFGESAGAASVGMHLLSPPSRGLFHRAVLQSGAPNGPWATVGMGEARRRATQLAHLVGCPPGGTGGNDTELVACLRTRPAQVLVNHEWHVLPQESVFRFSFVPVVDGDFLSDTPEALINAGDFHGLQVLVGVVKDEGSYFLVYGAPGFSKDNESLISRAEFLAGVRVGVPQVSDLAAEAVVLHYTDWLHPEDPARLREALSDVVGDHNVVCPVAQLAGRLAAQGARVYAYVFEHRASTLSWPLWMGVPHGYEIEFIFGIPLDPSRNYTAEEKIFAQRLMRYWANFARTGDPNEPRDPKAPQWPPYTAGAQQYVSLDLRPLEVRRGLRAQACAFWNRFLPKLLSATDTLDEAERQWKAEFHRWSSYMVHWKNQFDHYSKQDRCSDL

Row | Compound | Ratio IC50 [1] | IC50 (Acetylcholinesterase; read-out: IC50) [µM] | IC50 (Cholinesterase; read-out: IC50) [µM] | other results
1 | CN1C2=NCCCN2C(=O)c2cc(OC(=O)Nc3ccc(C(C)(C)C)cc3)ccc21 | < 0.004 | 0.2 | – | –
2 | CCCCNC(=O)Oc1ccc2c(c1)C(=O)N1CCCN=C1N2C | 0.09 | 3.84 | 43.9 | –
3 | CC(C)c1ccc(NC(=O)Oc2ccc3nc4n(c(=O)c3c2)CCCN4Cc2ccccc2)cc1 | – | – | – | inhibition [2]: 6%; inhibition [3]: 30%
4 | O=c1c2cc(O)ccc2nc2n1CCCN2 | 0.28 | 55.6 | – | IC50 (Acetylcholinesterase; read-out: pIC50 (converted)): 55 µM; Activity (HT-22 [4]): Toxic; inhibition [5]: 24%; Activity (HT-22 [6]): inactive
5 | CN1CCCn2c1nc1ccc(OCc3ccccc3)cc1c2=O | 0.21 | 15.6 | 81.7 | –
6 | CN1C2=NCCCN2C(=O)c2cc(O)ccc21 | 0.21 | 11.8 | 55.5 | Activity (HT-22 [7]): Non-toxic; Activity (HT-22 [6]): inactive; Activity (HT-22 [8]): inactive
7 | COc1cccc(NC(=O)Oc2ccc3nc4n(c(=O)c3c2)CCCN4CCCN2CCCCC2)c1 | 16.2 | 7.3 | 0.45 | IC50 (Cholinesterase; read-out: pIC50 (converted)): 25.7 µM
8 | CCCCCCCNC(=O)Oc1ccc2nc3n(c(=O)c2c1)CCCN3C | 3.41 | 5.98 | 1.75 | –
9 | O=C1c2ccccc2NC2=NCCCN12 | 0.3 | 29.6 | – | inhibition [5]: 47%; Activity (HT-22 [6]): inactive; Activity (HT-22 [9]): Toxic
10 | COc1cccc(NC(=O)Oc2ccc3nc4n(c(=O)c3c2)CCCN4Cc2ccccc2)c1 | – | – | – | inhibition [2]: 11%; inhibition [3]: 35%
11 | CCCCNC(=O)Oc1ccc2nc3n(c(=O)c2c1)CCCN3C | 0.37 | 16.3 | 44.3 | –
12 | CCCCCCCNC(=O)Oc1ccc2nc3n(c(=O)c2c1)CCCN3CCCN1CCCCC1 | 322 | 7.95 | 0.0247 | K [10]: 0.125 min⁻¹; Activity (HT-22 [7]): Non-toxic; Activity (HT-22 [6]): inactive; inhibition [11]: tde; inhibition [12]: inactive; K [13]: 1.3 nM
13 | O=c1c2cc(OCc3ccccc3)ccc2nc2n1CCCN2 | 0.19 | 19.3 | – | IC50 (Acetylcholinesterase; read-out: pIC50 (converted)): 19.1 µM; inhibition [2]: 20%
14 | CN1CCCN2Cc3cc(OCc4ccccc4)ccc3N=C12 | 0.2 | 0.826 | 4.17 | –
15 | O=c1c2cc(OCc3ccccc3)ccc2nc2n1CCCN2Cc1ccccc1 | – | – | – | inhibition [5]: 10%; inhibition [14]: 20%
16 | CCCCNC(=O)Oc1ccc2c(c1)CN1CCCN(C)C1=N2 | 2.31 | 3.13 | 1.34 | IC50 (Cholinesterase; read-out: pIC50 (converted)): 3.89 µM
17 | COc1cccc(NC(=O)Oc2ccc3c(c2)C(=O)N2CCCN=C2N3C)c1 | 0.06 | 2.9 | 52.2 | –

Row | Compound | Ratio IC50 [1] | IC50 (Acetylcholinesterase; read-out: IC50) [µM] | IC50 (Cholinesterase; read-out: IC50) [µM] | other results
18 | O=c1c2cc(O)ccc2nc2n1CCCN2CCCN1CCCCC1 | 1 | 22.9 | 22.7 | Activity (HT-22 [8]): inactive
19 | O=c1c2cc(O)ccc2nc2n1CCCN2Cc1ccccc1 | – | – | – | Activity (HT-22 [15]): Active; Activity (HT-22 [4]): Toxic; Activity (HT-22 [7]): Non-toxic; Activity [16]: 1.56 equiv; inhibition [2]: 40%; inhibition [3]: 41%
20 | CCCCCCCNC(=O)Oc1ccc2c(c1)CN1CCCN(C)C1=N2 | 5.31 | 3.36 | 0.63 | –
21 | CCCCNC(=O)Oc1ccc2nc3n(c(=O)c2c1)CCCN3CCCN1CCCCC1 | 6.35 | 6.91 | 1.1 | –
22 | O=c1c2cc(OCc3ccccc3)ccc2nc2n1CCCN2CCCN1CCCCC1 | 1.6 | 1.31 | 0.81 | IC50 (Acetylcholinesterase; read-out: pIC50 (converted)): 1.35 µM
23 | CCCCCCCNC(=O)Oc1ccc2nc3n(c(=O)c2c1)CCCN3Cc1ccccc1 | 3.51 | 88.8 | 25.3 | –
24 | CC(C)c1ccc(NC(=O)Oc2ccc3c(c2)C(=O)N2CCCN=C2N3C)cc1 | 0.03 | 0.0837 | 3.26 | K [17]: 0.09 min⁻¹; inhibition [18]: inactive; Activity (HT-22 [7]): Non-toxic; inhibition [19]: tde; Activity (HT-22 [6]): inactive; inhibition [12]: inactive; K [20]: 43.5 nM; inhibition [21]: Active
25 | CC(C)c1ccc(NC(=O)Oc2ccc3nc4n(c(=O)c3c2)CCCN4)cc1 | 0.5 | – | – | inhibition [2]: 19%; inhibition [3]: 34%
26 | CCCCNC(=O)Oc1ccc2nc3n(c(=O)c2c1)CCCN3Cc1ccccc1 | – | – | – | inhibition [2]: 8%; inhibition [3]: 41%
27 | CC(C)c1ccc(NC(=O)Oc2ccc3nc4n(c(=O)c3c2)CCCN4CCCN2CCCCC2)cc1 | 3.1 | 0.78 | 0.25 | –
28 | CCCCCCCNC(=O)Oc1ccc2c(c1)C(=O)N1CCCN=C1N2C | 26.1 | 3.64 | 0.14 | –
29 | CNC(=O)Oc1ccc2c(c1)[C@]1(C)CCN(C)[C@@H]1N2C | – | – | – | K [17]: 0.123 min⁻¹; K [10]: 0.067 min⁻¹; K [20]: 34.3 nM; K [13]: 41.1 nM
30 | CN1CCCN2Cc3cc(O)ccc3N=C12 | < 0.3 | 15.9 | – | Activity (HT-22 [7]): Non-toxic; Activity (HT-22 [6]): inactive; Activity (HT-22 [22]): Active; Activity [16]: 1.34 equiv; inhibition [2]: 53%; Activity (HT-22 [8]): inactive
31 | CC(C)c1ccc(NC(=O)Oc2ccc3nc4n(c(=O)c3c2)CCCN4C)cc1 | > 5.6 | – | 17.7 | inhibition [14]: 50%
32 | CN1C2=NCCCN2C(=O)c2cc(OCc3ccccc3)ccc21 | 0.03 | 0.7 | 21.4 | –
33 | COc1cccc(NC(=O)Oc2ccc3nc4n(c(=O)c3c2)CCCN4C)c1 | 0.33 | 5.46 | 12.6 | –
34 | CN1CCCn2c1nc1ccc(O)cc1c2=O | – | – | – | Activity (HT-22 [7]): Non-toxic; Activity [16]: 1.54 equiv; inhibition [2]: 9%; inhibition [3]: 61%; Activity (HT-22 [8]): Active
